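Five concentrations, 48 hours, 96-well plates. Abbreviation: GI50, concentration required for 50% inhibition of growth.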 Active and inactive are the calls of the source. Cut-off read from the data, not from the text of the source: active = GI50 up to about 1.1 µM and inactive = higher.
Tests used:
Assay in all cases: inhibition of tumour cell growth, NCI panel, 48 h
SK-MEL-2 = tested on: SK-MEL-2
KM12 = tested on: KM12
RXF 393 = tested on: RXF 393
NCI-H226 = tested on: NCI-H226
SW-620 = tested on: SW-620
U-251 = tested on: U-251
T47D = tested on: T47D
RPMI-8226 = tested on: RPMI-8226
MDA-N = tested on: MDA-N
LOX IMVI = tested on: LOX IMVI
SNB-75 = tested on: SNB-75
HL-60 = tested on: HL-60
ACHN = tested on: ACHN
HOP-92 = tested on: HOP-92
UACC-62 = tested on: UACC-62
BT-549 = tested on: BT-549
A549 = tested on: A549
PC-3 = tested on: PC-3
SK-MEL-28 = tested on: SK-MEL-28

| Compound | GI50 (SK-MEL-2) | GI50 (KM12) | GI50 (RXF 393) | GI50 (NCI-H226) | GI50 (SW-620) | GI50 (U-251) | GI50 (T47D) | GI50 (RPMI-8226) | GI50 (MDA-N) | GI50 (LOX IMVI) | GI50 (SNB-75) | GI50 (HL-60) | GI50 (ACHN) | GI50 (HOP-92) | GI50 (UACC-62) | GI50 (BT-549) | GI50 (A549) | GI50 (PC-3) | GI50 (SK-MEL-28) |
| --- | --- | --- | --- | --- | --- | --- | --- | --- | --- | --- | --- | --- | --- | --- | --- | --- | --- | --- | --- |
| O=c1[nH]/c(=C/c2ccc(OCc3ccccc3)cn2)c(=O)[nH]/c1=C/c1cccnc1 | 0.38 µM (active) | 0.308 µM (active) | 0.574 µM (active) | 0.904 µM (active) | 0.42 µM (active) | 0.581 µM (active) | 0.458 µM (active) | 0.628 µM (active) | 0.106 µM (active) | 1.95 µM (inactive) | 0.452 µM (active) | 0.117 µM (active) | 0.728 µM (active) | > 35.2 µM (inactive) | 0.192 µM (active) | 14.2 µM (inactive) | 0.804 µM (active) | 0.423 µM (active) | – |
| CC(=O)OCC1OC(Oc2cc(C)c(O)cc2C/C=C(\C)CC/C=C(\C)C[C@@H](C=C(C)C)OC(C)=O)C(O)C(OC(C)=O)C1OC(C)=O (stereo partly drawn) | 19.9 µM (inactive) | 15.7 µM (inactive) | 12 µM (inactive) | – | 23.6 µM (inactive) | 25.5 µM (inactive) | 10.1 µM (inactive) | 9.84 µM (inactive) | 25.2 µM (inactive) | 13.9 µM (inactive) | 13.2 µM (inactive) | 9.79 µM (inactive) | 20 µM (inactive) | > 50 µM (inactive) | 13.1 µM (inactive) | 16.8 µM (inactive) | 19.1 µM (inactive) | 18.2 µM (inactive) | 44.5 µM (inactive) |
| Cc1cc2nc(-c3c(F)cccc3F)n(Cc3c(F)cccc3F)c2cc1C | 15.8 µM (inactive) | 14.8 µM (inactive) | 23.2 µM (inactive) | 15.7 µM (inactive) | 16.3 µM (inactive) | 11.1 µM (inactive) | 14.8 µM (inactive) | 5.28 µM (inactive) | 16 µM (inactive) | 14.3 µM (inactive) | 3.37 µM (inactive) | 16.3 µM (inactive) | 14.3 µM (inactive) | 12.7 µM (inactive) | – | 13.2 µM (inactive) | 12.1 µM (inactive) | 15.7 µM (inactive) | 16.6 µM (inactive) |
| Cc1nc2cc3ccccc3cc2[nH]c1=O | > 100 µM (inactive) | 85.1 µM (inactive) | 47.5 µM (inactive) | 53.2 µM (inactive) | > 100 µM (inactive) | 55.1 µM (inactive) | 55.2 µM (inactive) | – | > 100 µM (inactive) | > 100 µM (inactive) | 24.5 µM (inactive) | > 100 µM (inactive) | – | 26.1 µM (inactive) | 36.3 µM (inactive) | > 100 µM (inactive) | > 100 µM (inactive) | > 100 µM (inactive) | > 100 µM (inactive) |
| COc1cc(S(=O)(=O)Nc2nc(-c3ccc(N4C(=O)/C(=C/c5ccccc5[N+](=O)[O-])N=C4c4ccccc4)cc3)cs2)ccc1Cl | 33.3 µM (inactive) | 73.1 µM (inactive) | 63.5 µM (inactive) | > 100 µM (inactive) | > 100 µM (inactive) | 46.6 µM (inactive) | 55.5 µM (inactive) | – | > 100 µM (inactive) | 50.2 µM (inactive) | > 100 µM (inactive) | 44.3 µM (inactive) | > 100 µM (inactive) | 88.3 µM (inactive) | 27 µM (inactive) | 20 µM (inactive) | > 100 µM (inactive) | 47 µM (inactive) | > 100 µM (inactive) |
| CC1=NN(c2ccc(S(=O)(=O)O)cc2)C2(C1)C(Cl)C(=O)N2c1nc2ccccc2s1 (stereo not drawn) | 92.5 µM (inactive) | > 100 µM (inactive) | > 100 µM (inactive) | 21.4 µM (inactive) | > 100 µM (inactive) | > 100 µM (inactive) | 59.8 µM (inactive) | > 100 µM (inactive) | > 100 µM (inactive) | 57.8 µM (inactive) | > 100 µM (inactive) | > 100 µM (inactive) | > 100 µM (inactive) | > 100 µM (inactive) | 95.9 µM (inactive) | > 100 µM (inactive) | > 100 µM (inactive) | > 100 µM (inactive) | > 100 µM (inactive) |
| C=C1C(=O)OC2C1CC(O)/C(C)=C\CCC1(C)OC21 (stereo not drawn) | 17.5 µM (inactive) | 32.9 µM (inactive) | 16.8 µM (inactive) | – | 38.8 µM (inactive) | 20.3 µM (inactive) | 46.1 µM (inactive) | 21.4 µM (inactive) | 19.1 µM (inactive) | 27 µM (inactive) | 39.8 µM (inactive) | 23.7 µM (inactive) | 39.5 µM (inactive) | 34.6 µM (inactive) | 21.2 µM (inactive) | 23 µM (inactive) | 35.5 µM (inactive) | 23.2 µM (inactive) | 33.3 µM (inactive) |
| OC1CCCN(C2(c3cccs3)CCCCC2)C1 (stereo not drawn) | > 100 µM (inactive) | > 100 µM (inactive) | > 100 µM (inactive) | – | > 100 µM (inactive) | > 100 µM (inactive) | > 100 µM (inactive) | > 100 µM (inactive) | > 100 µM (inactive) | > 100 µM (inactive) | > 100 µM (inactive) | 74.6 µM (inactive) | > 100 µM (inactive) | > 100 µM (inactive) | > 100 µM (inactive) | > 100 µM (inactive) | – | > 100 µM (inactive) | > 100 µM (inactive) |
